Columns and labels:
[1] = tested on: PC-3; experiment: Cytotoxicity against human PC-3 cells assessed as cell growth inhibition measured after 24 to 72 hrs by MTT assay; assay type: functional, cell-based
[2] = tested on: MCF7; experiment: Cytotoxicity against human MCF7 cells assessed as cell growth inhibition measured after 24 to 72 hrs by MTT assay; assay type: functional, cell-based
[3] = tested on: NCI-H460; experiment: Cytotoxicity against human NCI-H460 cells assessed as cell growth inhibition measured after 24 to 72 hrs by MTT assay; assay type: functional, cell-based
[4] = tested on: SF-268; experiment: Cytotoxicity against human SF-268 cells assessed as cell growth inhibition measured after 24 to 72 hrs by MTT assay; assay type: functional, cell-based
[5] = tested on: WI-38; experiment: Cytotoxicity against human WI-38 cells assessed as cell growth inhibition measured after 24 to 72 hrs by MTT assay; assay type: cell-based
[6] = tested on: PC-3; experiment: Cytotoxicity against human PC-3 cells assessed as cell growth inhibition up to 10 uM measured after 24 to 72 hrs by MTT assay relative to control; assay type: functional; settings: dose microM <=10; time 24-72 hrs
[7] = tested on: MCF7; experiment: Cytotoxicity against human MCF7 cells assessed as cell growth inhibition up to 10 uM measured after 24 to 72 hrs by MTT assay relative to control; assay type: functional; settings: dose microM <=10; time 24-72 hrs
[8] = tested on: NCI-H460; experiment: Cytotoxicity against human NCI-H460 cells assessed as cell growth inhibition up to 10 uM measured after 24 to 72 hrs by MTT assay relative to control; assay type: functional; settings: dose microM <=10; time 24-72 hrs
[9] = tested on: SF-268; experiment: Cytotoxicity against human SF-268 cells assessed as cell growth inhibition up to 10 uM measured after 24 to 72 hrs by MTT assay relative to control; assay type: functional; settings: dose microM <=10; time 24-72 hrs
[10] = tested on: WI-38; experiment: Cytotoxicity against human WI-38 cells assessed as cell growth inhibition up to 10 uM measured after 24 to 72 hrs by MTT assay relative to control; assay type: cell-based; settings: time 24-72 hrs
[11] = tested on: PC-3; experiment: Cytotoxicity against human PC-3 cells assessed as cell growth inhibition measured after 24 hrs by MTT assay; assay type: functional, cell-based; settings: PC-3, 24 h
[12] = tested on: MCF7; experiment: Cytotoxicity against human MCF7 cells assessed as cell growth inhibition measured after 24 hrs by MTT assay; assay type: functional, cell-based; settings: MCF7, 24 h
[13] = tested on: PC-3; experiment: Cytotoxicity against human PC-3 cells assessed as cell growth inhibition measured after 24 to 72 hrs in presence of 5beta,6beta-epoxy-2,3-dihydrophysalin C-3beta-O-sulfate by MTT assay; assay type: functional, cell-based
[14] = tested on: MCF7; experiment: Cytotoxicity against human MCF7 cells assessed as cell growth inhibition measured after 24 to 72 hrs in presence of 5beta,6beta-epoxy-2,3-dihydrophysalin C-3beta-O-sulfate by MTT assay; assay type: functional, cell-based
[15] = tested on: NCI-H460; experiment: Cytotoxicity against human NCI-H460 cells assessed as cell growth inhibition measured after 24 to 72 hrs in presence of 5beta,6beta-epoxy-2,3-dihydrophysalin C-3beta-O-sulfate by MTT assay; assay type: functional, cell-based
[16] = tested on: SF-268; experiment: Cytotoxicity against human SF-268 cells assessed as cell growth inhibition measured after 24 to 72 hrs in presence of 5beta,6beta-epoxy-2,3-dihydrophysalin C-3beta-O-sulfate by MTT assay; assay type: functional, cell-based
[17] = tested on: WI-38; experiment: Cytotoxicity against human WI-38 cells assessed as cell growth inhibition measured after 24 to 72 hrs in presence of 5beta,6beta-epoxy-2,3-dihydrophysalin C-3beta-O-sulfate by MTT assay; assay type: cell-based
[18] = tested on: PC-3; experiment: Cytotoxicity against human PC-3 cells assessed as cell growth inhibition measured after 24 to 72 hrs in presence of 2,3-dihydrophysalin F-3beta-O-sulfate by MTT assay; assay type: functional, cell-based
[19] = tested on: MCF7; experiment: Cytotoxicity against human MCF7 cells assessed as cell growth inhibition measured after 24 to 72 hrs in presence of 2,3-dihydrophysalin F-3beta-O-sulfate by MTT assay; assay type: functional, cell-based
[20] = tested on: NCI-H460; experiment: Cytotoxicity against human NCI-H460 cells assessed as cell growth inhibition measured after 24 to 72 hrs in presence of 2,3-dihydrophysalin F-3beta-O-sulfate by MTT assay; assay type: functional, cell-based
[21] = tested on: SF-268; experiment: Cytotoxicity against human SF-268 cells assessed as cell growth inhibition measured after 24 to 72 hrs in presence of 2,3-dihydrophysalin F-3beta-O-sulfate by MTT assay; assay type: functional, cell-based
[22] = tested on: WI-38; experiment: Cytotoxicity against human WI-38 cells assessed as cell growth inhibition measured after 24 to 72 hrs in presence of 2,3-dihydrophysalin F-3beta-O-sulfate by MTT assay; assay type: cell-based

Row | SMILES | IC50 [1] [nM] | IC50 [2] [nM] | IC50 [3] [nM] | IC50 [4] [nM] | IC50 [5] [nM] | growth inhibition (GI) [6] [%] | growth inhibition (GI) [7] [%] | growth inhibition (GI) [8] [%] | growth inhibition (GI) [9] [%] | growth inhibition (GI) [10] [%] | also measured
1 | C[C@]12C(=O)C=CCC1=CC[C@@H]1[C@@H]2CC[C@]2(O)C(=O)O[C@@]3(C)[C@H]4C[C@]5(C)[C@@H](CO[C@@]16O[C@@]32[C@H]5C6=O)C(=O)O4 [PHYSALIN B] | 1000 | 1000 | 900 | 600 | 3300 | – | – | – | – | – | –
2 | CO[C@]12CC=CC(=O)[C@]1(C)[C@H]1CC[C@@]3(O)C(=O)O[C@@]4(C)[C@H]5C[C@]6(C)[C@@H](CO[C@@]7(O[C@]34[C@H]6C7=O)[C@@H]1C[C@H]2O)C(=O)O5 | – | – | – | – | – | <50 | <50 | <50 | <50 | < 50 | –
3 | CO[C@@H]1CC(=O)[C@]2(C)[C@H]3CC[C@@]4(O)C(=O)O[C@@]5(C)[C@H]6C[C@]7(C)[C@@H](CO[C@@]8(O[C@]45[C@H]7C8=O)[C@@H]3C[C@H]3O[C@]32C1)C(=O)O6 | – | – | – | – | – | <50 | <50 | <50 | <50 | < 50 | –
4 | C[C@@H]1C(=O)O[C@@H]2C[C@@]1(C)[C@@H]1C(=O)[C@]3(O)O[C@@]14[C@@](O)(CC[C@H]1[C@H]3C[C@H]3O[C@]35CCCC(=O)[C@]15C)C(=O)O[C@@]24C | – | – | – | – | – | <50 | <50 | <50 | <50 | < 50 | –
5 | C=C1C(=O)O[C@@H]2C[C@@]1(C)[C@@H]1C(=O)[C@]3(O)O[C@@]14[C@@](O)(CC[C@H]1[C@H]3C[C@@H](O)[C@@]3(Cl)CC=CC(=O)[C@]13C)C(=O)O[C@@]24C | 800 | 1200 | 600 | 500 | 3200 | – | – | – | – | – | –
6 | C/C(=C1/C(=O)C[C@H]2[C@@H]3[C@@H]4O[C@@H]4[C@@]4(O)CC=CC(=O)[C@]4(C)[C@H]3CC(=O)[C@]12C)[C@H]1C[C@]2(C)O[C@]2(C)C(=O)O1 | 2300 | > 10000 | 6500 | 7200 | > 10000 | – | – | – | – | – | IC50 [11]: 68000 nM; IC50 [12]: > 100000 nM
7 | C[C@@]12C[C@H]3OC(=O)[C@@H]1CO[C@]14O[C@]5([C@H]2C1=O)[C@@](O)(CC[C@H]1[C@H]4C[C@@H](O)[C@@]2(Cl)CC=CC(=O)[C@]12C)C(=O)O[C@@]35C | 1000 | 2100 | 600 | 800 | 3900 | – | – | – | – | – | –
8 | CC(=O)O[C@]12O[C@@]34[C@@H](C1=O)[C@]1(C)C[C@@H](OC(=O)[C@H]1C)[C@]3(C)OC(=O)[C@]4(O)CC[C@H]1[C@H]2C[C@H]2O[C@]23CCCC(=O)[C@]13C | – | – | – | – | – | <50 | <50 | <50 | <50 | < 50 | –
9 | COc1cccc2c1C(=O)c1c(O)c3c(c(O)c1C2=O)C[C@@](O)(C(=O)CO)C[C@@H]3O[C@H]1C[C@H](N)[C@H](O)[C@H](C)O1 [DOXORUBICIN] | – | – | – | 500 | – | – | – | – | – | – | –
10 | C[C@@]12C[C@H]3OC(=O)[C@@H]1CO[C@]14O[C@]5([C@H]2C1=O)[C@@](O)(CC[C@H]1[C@H]4C[C@H]2O[C@]24C[C@@H](OS(=O)(=O)O)CC(=O)[C@]14C)C(=O)O[C@@]35C | – | – | – | – | – | – | – | – | – | – | IC50 [13]: 2600 nM; IC50 [14]: > 7200 nM; IC50 [15]: 2000 nM; IC50 [16]: 2400 nM; IC50 [17]: > 10000 nM
11 | C=C1C(=O)O[C@@H]2C[C@@]1(C)[C@@H]1C(=O)[C@]3(O)O[C@@]14[C@@](O)(CC[C@H]1[C@H]3C[C@H]3O[C@]35CC=CC(=O)[C@]15C)C(=O)O[C@@]24C | 1000 | 1700 | 1200 | 900 | 3900 | – | – | – | – | – | –
12 | C=C1C(=O)O[C@@H]2C[C@@]1(C)[C@@H]1C(=O)[C@]3(O)O[C@@]14[C@@](O)(CC[C@H]1[C@H]3C[C@H]3O[C@]35C[C@@H](OS(=O)(=O)O)CC(=O)[C@]15C)C(=O)O[C@@]24C | – | – | – | – | – | – | – | – | – | – | IC50 [18]: 2600 nM; IC50 [19]: > 7200 nM; IC50 [20]: 2000 nM; IC50 [21]: 2400 nM; IC50 [22]: > 10000 nM
13 | C[C@@]12C[C@H]3OC(=O)[C@@H]1CO[C@]14O[C@@]5([C@H]2C1=O)[C@@]3(C)OC(=O)[C@@]5(O)CC[C@H]1[C@H]4C[C@@H](O)[C@@]2(O)CC=CC(=O)[C@]12C | – | – | – | – | – | <50 | <50 | <50 | <50 | < 50 | –
14 | C[C@@]12C[C@H]3OC(=O)[C@@H]1CO[C@]14O[C@@]5([C@H]2C1=O)[C@@]3(C)OC(=O)[C@@]5(O)CC[C@H]1[C@H]4C[C@H]2O[C@]23CC=CC(=O)[C@]13C | 1000 | 600 | 1000 | 500 | 3500 | – | – | – | – | – | –

— ChEMBL document CHEMBL4813956, “Cytotoxic Physalins from Aeroponically Grown Physalis acutifolia” (J Nat Prod, 2021)
